Earlier results in publication PMC5957517 (Biochimica et biophysica acta, 2018).

System: MRSA infections
Settings: ref [43],[44]

For `CN[C@H](CC(C)C)C(=O)N[C@H]1C(=O)N[C@@H](CC(N)=O)C(=O)N[C@H]2C(=O)N[C@H]3C(=O)N[C@H](C(=O)N[C@H](C(=O)O)c4cc(O)cc(O)c4-c4cc3ccc4O)[C@H](O)c3ccc(c(Cl)c3)Oc3cc2cc(c3O[C@@H]2O[C@H](CO)[C@@H](O)[C@H](O)[C@H]2O[C@H]2C[C@](C)(N)[C@H](O)[C@H](C)O2)Oc2ccc(cc2Cl)[C@H]1O` [vancomycin], the reported clinical efficacy is given as 35-57%.
